For nine compounds, IC50 results are on record in US12187742B2 (XRAD Therapeutics, Inc., priority 2018, dated 2025).

One assay addresses ATM (Homo sapiens (Human), UniProt Q13315). Nature of the assay: ATM in Cell Western Assay (pKAP1 in etoposide-treated MCF-7 cells). The assay is classed as cell-based. The method in brief:
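After paraformaldehyde fixation and Triton X-100 permeabilization, immunostained plates were read by infrared scanning (ODYSSEY CLx). Compound was given as 10 doses, 3-fold dilutions from a 1 μM final top concentration.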

The next assay has as its target DNA-PK (Homo sapiens (Human), UniProt P78527). Briefly: DNA-PK Enzyme-Linked Immunosorbent Assay (phosphorylation of GST-p53 (1-101) peptide). The assay is classed as biochemical. Particulars: ELISA. In outline: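 Inhibition measured by 450 nm absorbance after HRP/TMB detection of phospho-Ser15 on immobilized GST-p53 (1-101). The kinase reaction used 0.1 μg/mL DNA-PK and 20 μM ATP, 1 h at 25 °C. Ten 3-fold compound dilutions, top final concentration 100 nM.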

Setting [1] is: MCF-7 cells, etoposide 100 μM, 1 hr, pKAP1 readout.
Where [2] appears, read: pKAP1 in etoposide-treated MCF-7 cells.

pIC50: −log10 of the molar value. Structures can show the parent of a compound that is named as a salt.

Chain of ATM (Q13315 whole entry): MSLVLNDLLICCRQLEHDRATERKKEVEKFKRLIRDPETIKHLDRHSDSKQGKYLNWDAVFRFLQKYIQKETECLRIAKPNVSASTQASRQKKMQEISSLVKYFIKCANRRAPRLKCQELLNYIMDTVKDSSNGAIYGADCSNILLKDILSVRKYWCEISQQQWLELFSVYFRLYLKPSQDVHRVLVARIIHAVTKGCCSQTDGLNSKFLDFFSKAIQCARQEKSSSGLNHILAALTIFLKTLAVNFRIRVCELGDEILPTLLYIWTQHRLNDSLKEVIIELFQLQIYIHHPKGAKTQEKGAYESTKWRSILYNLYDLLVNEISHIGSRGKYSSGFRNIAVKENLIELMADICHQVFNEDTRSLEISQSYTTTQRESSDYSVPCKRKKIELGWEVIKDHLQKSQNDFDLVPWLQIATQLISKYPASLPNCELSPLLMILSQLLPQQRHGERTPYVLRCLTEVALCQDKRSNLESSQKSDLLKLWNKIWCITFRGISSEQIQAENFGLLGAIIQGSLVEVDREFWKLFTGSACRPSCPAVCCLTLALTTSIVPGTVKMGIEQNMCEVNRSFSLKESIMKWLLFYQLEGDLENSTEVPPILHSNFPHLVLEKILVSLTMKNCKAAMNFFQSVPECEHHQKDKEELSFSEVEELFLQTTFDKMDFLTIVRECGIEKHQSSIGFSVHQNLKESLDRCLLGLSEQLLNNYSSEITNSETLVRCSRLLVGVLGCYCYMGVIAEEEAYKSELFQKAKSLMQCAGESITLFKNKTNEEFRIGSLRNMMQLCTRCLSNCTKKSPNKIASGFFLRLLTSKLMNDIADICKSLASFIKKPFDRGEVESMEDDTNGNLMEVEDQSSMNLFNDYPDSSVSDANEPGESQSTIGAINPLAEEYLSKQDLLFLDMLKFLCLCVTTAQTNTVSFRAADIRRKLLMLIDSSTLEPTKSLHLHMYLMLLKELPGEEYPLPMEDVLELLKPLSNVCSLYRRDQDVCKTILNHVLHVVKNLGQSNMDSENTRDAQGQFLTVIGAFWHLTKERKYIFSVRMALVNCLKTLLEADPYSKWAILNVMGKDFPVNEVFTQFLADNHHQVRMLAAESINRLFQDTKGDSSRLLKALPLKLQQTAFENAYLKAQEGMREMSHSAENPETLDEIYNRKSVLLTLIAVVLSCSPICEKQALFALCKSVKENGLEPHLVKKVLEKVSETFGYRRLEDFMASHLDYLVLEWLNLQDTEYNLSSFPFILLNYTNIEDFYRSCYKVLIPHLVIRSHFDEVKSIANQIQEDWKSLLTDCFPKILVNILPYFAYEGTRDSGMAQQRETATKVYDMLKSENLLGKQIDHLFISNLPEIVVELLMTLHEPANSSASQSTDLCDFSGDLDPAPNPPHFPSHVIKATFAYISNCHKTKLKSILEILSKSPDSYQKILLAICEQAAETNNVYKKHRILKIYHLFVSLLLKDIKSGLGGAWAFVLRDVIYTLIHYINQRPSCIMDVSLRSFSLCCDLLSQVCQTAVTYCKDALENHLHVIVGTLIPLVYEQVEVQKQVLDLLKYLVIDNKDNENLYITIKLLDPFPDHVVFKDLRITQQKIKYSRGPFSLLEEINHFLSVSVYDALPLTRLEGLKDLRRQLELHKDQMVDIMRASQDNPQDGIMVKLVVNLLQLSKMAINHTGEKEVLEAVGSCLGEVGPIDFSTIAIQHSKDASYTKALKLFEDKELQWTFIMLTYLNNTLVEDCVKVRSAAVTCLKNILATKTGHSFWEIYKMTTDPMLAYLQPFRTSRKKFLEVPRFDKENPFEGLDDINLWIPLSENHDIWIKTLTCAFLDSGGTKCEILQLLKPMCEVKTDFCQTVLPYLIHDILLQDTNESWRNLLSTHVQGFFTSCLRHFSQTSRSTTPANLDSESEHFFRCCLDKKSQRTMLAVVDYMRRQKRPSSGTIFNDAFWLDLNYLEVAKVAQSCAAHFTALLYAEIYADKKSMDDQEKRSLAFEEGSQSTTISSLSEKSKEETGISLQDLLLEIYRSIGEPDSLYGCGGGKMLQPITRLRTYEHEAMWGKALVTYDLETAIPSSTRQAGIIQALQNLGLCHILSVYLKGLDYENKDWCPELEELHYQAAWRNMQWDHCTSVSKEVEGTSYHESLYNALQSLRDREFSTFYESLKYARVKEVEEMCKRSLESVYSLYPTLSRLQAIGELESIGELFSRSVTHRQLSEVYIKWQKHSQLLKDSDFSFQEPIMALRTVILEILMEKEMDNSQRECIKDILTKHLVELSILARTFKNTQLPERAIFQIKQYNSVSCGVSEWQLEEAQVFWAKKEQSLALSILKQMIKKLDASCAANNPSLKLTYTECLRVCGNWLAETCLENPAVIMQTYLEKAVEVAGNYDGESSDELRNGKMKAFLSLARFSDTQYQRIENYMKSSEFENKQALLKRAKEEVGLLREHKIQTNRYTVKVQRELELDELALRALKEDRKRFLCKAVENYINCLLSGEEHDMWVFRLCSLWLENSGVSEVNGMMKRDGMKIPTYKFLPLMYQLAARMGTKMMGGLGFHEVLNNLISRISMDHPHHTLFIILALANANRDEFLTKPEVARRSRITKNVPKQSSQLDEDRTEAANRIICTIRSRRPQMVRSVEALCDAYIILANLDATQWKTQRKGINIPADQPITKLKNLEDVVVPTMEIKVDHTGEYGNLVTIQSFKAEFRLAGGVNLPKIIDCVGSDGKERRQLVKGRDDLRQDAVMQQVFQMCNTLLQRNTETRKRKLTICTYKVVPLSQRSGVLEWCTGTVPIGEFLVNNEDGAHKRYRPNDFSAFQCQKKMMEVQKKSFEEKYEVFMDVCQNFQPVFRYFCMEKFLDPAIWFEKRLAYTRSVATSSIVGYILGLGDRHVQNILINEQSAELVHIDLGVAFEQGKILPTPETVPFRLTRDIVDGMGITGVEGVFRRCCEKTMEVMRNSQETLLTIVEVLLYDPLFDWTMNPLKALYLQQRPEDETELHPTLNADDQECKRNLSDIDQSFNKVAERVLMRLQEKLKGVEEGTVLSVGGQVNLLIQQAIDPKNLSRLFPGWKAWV

Regarding `CN1C(=O)C2(CCC2)c2c1cnc1ccc(-c3cnc(OCC(O)CN4CCCCC4)c(NS(C)(=O)=O)c3)cc21` (stereo not drawn) [Example 287, N-(2-(2-Hydroxy-3-(piperidin-1-yl)propoxy)-5-(3′-methyl-2′-oxo-2′,3′-dihydrospiro[cyclobutane-1,1′-pyrrolo[2,3-c]quinolin]-8′-yl)pyridin-3-yl)methanesulfonamide], the pIC50 was 7.00 to 9.00 on ATM (setting [1]) and greater than 9.30 against DNA-PK (ATP 20 μM).
As to `CN(C)CCCOc1ncc(-c2ccc3ncc4c(c3c2)C2(CCC2)C(=O)N4C)cc1NS(=O)(=O)c1cncs1` [Example 169, N-(2-(3-(Dimethylamino)propoxy)-5-(3′-methyl-2′-oxo-2′,3′-dihydrospiro [cyclobutane-1,1′-pyrrolo [2,3-c]quinolin]-8′-230 yl)pyridin-3-yl)thiazole-5-sulfonamide hydrochloride], the values for the negative-log IC50 (pIC50) against ATM (setting [1]) and at DNA-PK (ATP 20 μM) were 7.00 to 9.00 and greater than 9.30, respectively.
In the same order, the values of `CN1C(=O)C2(CCC2)c2c1cnc1ccc(-c3cnc(OCCCN4CCCCC4)c(NS(=O)(=O)c4ccccc4F)c3)cc21` [Example 195, 2-Fluoro-N-(5-(3′-methyl-2′-oxo-2′,3′-dihydrospiro[cyclobutane-1,1′-pyrrolo[2,3-c]quinolin]-8′-yl)-2-(3-(piperidin-1-yl)propoxy)pyridin-3-yl) benzenesulfonamide hydrochloride] are 7.00 to 9.00 and 9.00 to 9.30.
As to `CN(C)CCCOc1ncc(-c2ccc3ncc4c(c3c2)C2(CCC2)C(=O)N4C)cc1NS(=O)(=O)c1ccc(F)c(C#N)c1` [Example 159, 3-Cyano-N-(2-(3-(dimethylamino)propoxy)-5-(3′-methyl-2′-oxo-2′,3′-dihydrospiro [cyclobutane-1,1′-pyrrolo[2,3-c]quinolin]-8′-yl)pyridin-3-yl)-4-fluorobenzene-sulfonamide hydrochloride], the pIC50 against ATM (setting [1]) and against DNA-PK (ATP 20 μM) was 9.00 to 9.30 each time.
Regarding `CC(C)NCCOc1ncc(-c2cc3c4c(cnc3cc2F)N(C)C(=O)C42CN(C3CCCC3)C2)cc1NS(C)(=O)=O` [Example 498, N-(5-(1-Cyclopentyl-7′-fluoro-3′-methyl-2′-oxo-2′,3′-dihydrospiro[azetidine-3,1′-pyrrolo[2,3-c]quinolin]-8′-yl)-2-(2-(isopropylamino)ethoxy)pyridin-3-yl)methanesulfonamide], the pIC50 on ATM (setting [2]) was 7.00 to 9.00; at DNA-PK (20 μM ATP), 9.00 to 9.30.
In the same order, the values of `CO[C@H]1C[C@]2(C1)C(=O)N(C)c1cnc3cc(F)c(-c4cnc(OCCNC(C)C)c(NS(=O)(=O)C5CC5)c4)cc3c12` [Example 387, cis-N-(5-(7′-Fluoro-3-methoxy-3′-methyl-2′-oxo-2′,3′-dihydrospiro[cyclobutane-1,1′-pyrrolo[2,3-c]quinolin]-8′-yl)-2-(2-(isopropylamino)ethoxy)pyridin-3-yl)cyclopropanesulfonamid] are 7.00 to 9.00 and 7.00 to 9.00.
As for `CN(C)CCCOc1ncc(-c2ccc3ncc4c(c3c2)C2(CC2)C(=O)N4C)cc1NS(=O)(=O)c1cccc(C(F)(F)F)c1` [Example 106, N-(2-(3-(Dimethylamino)propoxy)-5-(3′-methyl-2′-oxo-2′,3′-dihydrospiro [cyclopropane-1,1′-pyrrolo[2,3-c]quinolin]-8′-yl)pyridin-3-yl)-3-(trifluoromethyl)benzenesulfonamide], the figures for the pIC50 at ATM (setting [1]) and at DNA-PK (ATP 20 μM) were 7.00 to 9.00 and greater than 9.30, respectively.
The matching figures for `COc1ncc(-c2ccc3ncc4c(c3c2)C2(CC2)C(=O)N4C)cc1NS(=O)(=O)c1ccccc1` [Example 14, N-(2-Methoxy-5-(3′-methyl-2′-oxo-2′,3′-dihydrospiro [cyclopropane-1,1′-pyrrolo[2,3-c]quinolin]-8′-yl)pyridin-3-yl)benzenesulfonamide]: 7.00 to 9.00 and greater than 9.30.
Take `CC(C)NCCOc1ncc(-c2cc3c(cc2F)ncc2c3[C@]3(C[C@@H](c4ccc(F)cc4)C3)C(=O)N2C)cc1NS(C)(=O)=O` [Example 423, trans-N-(5-(7′-Fluoro-3-(4-fluorophenyl)-3′-methyl-2′-oxo-2′,3′-dihydrospiro[cyclobutane-1,1′-pyrrolo[2,3-c]quinolin]-8′-yl)-2-(2-(isopropylamino)ethoxy)pyridin-3-yl)methanesulfonamide]: the pIC50 against ATM (setting [2]) and against DNA-PK (20 μM ATP) was 7.00 to 9.00 throughout.
